Patent EP1061957B1, “MANGANESE (II) CHELATES WITH HIGH RELAXIVITY IN SERUM” (BRACCO S.p.A., priority 1998, dated 1999)
Like-named read-outs stand apart in the source and are kept apart here.

Tests used:
[1] = Thermodynamic stability constant in aqueous solution, potentiometric method; format: physicochemical; settings: 20°C, 0.1 M KCl aqueous solution
[2] = Relaxivity in human serum reconstituted from Seronorm Human; format: physicochemical; settings: human serum reconstituted from lyophilized Seronorm Human (Nycomed Pharma)
Experimental: The relaxivity of the compounds of the invention was measured both in saline solution and in human serum, reconstituted from Seronorm^(R) Human (Nycomed Pharma), lyophilized human serum.

[3] = system: mouse; experiment: Acute toxicity, DL50 in the mouse; format: in vivo; settings: i.v.
[4] = system: mouse; settings: literature value, cited from earlier work
[5] = thermodynamic stability constant; from Smith and Martell, Critical Stability Constants, Vol. 6; cited from earlier work

Row | Molecule | Log KML [1] | Relaxivity Seronorm Human r1 [2] | DL50 [3] [mmol/kg] | DL50 ([4]; i.v.) | DL50 ([4]; i.p.) | Log KML [5]
1 | Manganese complex(II) of N,N'-1,2-ethanediylbis[N-(carboxymethyl)-O-(phenylmethyl) -D,L-serine] salified with 1-deoxy-1-(methyl amino) -D-glucitol (1:2) [EXAMPLE 1] | 13.8 ± 0.1 | 36 ^(3) mM^-1s^-1 | 4.5 | – | – | –
2 | [Cl][Mn][Cl] [MnCl2] | – | 53 ^(3) mM^-1s^-1 | – | 0.25 - 0.30 ^(1) mmol/kg | – | –
3 | Mn-EDTA | – | 10 ^(3) mM^-1s^-1 | – | – | 5.9 ^(2) mmol/kg | 13.88 ^(2)
